Key:
[1] = test system: Dengue Virus Type 2 strain New Guinea; assay: Cytoprotection assay, Dengue virus; assay type: cell-based; settings: Vero C1008
[2] = test system: West Nile virus strain NY-99; assay: Cytoprotection assay, West Nile virus; assay type: cell-based; settings: West Nile Virus NY-99, Vero
[3] = test system: Rhinovirus strain 1B; assay: Cytoprotection assay, Rhinovirus; assay type: cell-based; settings: Enterovirus, MRC5
[4] = test system: Influenza A strain Hong Kong; assay: Cytoprotection assay, Influenza A; assay type: cell-based; settings: Influenza A virus, MDCK
[5] = test system: Vaccinia Strain Western Reserve; assay: microbe, parasite or virus in culture; assay type: cell-based; settings: Orthopoxvirus vaccinia, Vero C1008
[6] = test system: Adenovirus Type 1; assay: Cytoprotection assay, Adenovirus; assay type: cell-based; settings: Adenovirus Type I, HeLa
[7] = Cytotoxicity evaluation of the HCMV plaque reduction assay; assay type: cell-based; settings: human, MRC-5 cells; MRC-5, HCMV AD169 assay
Description: MRC-5 cells ((ATCC CCL-171) embryonal lung fibroblast, diploid, human) were used in plaque reduction assays with HCMV Strain AD169 (ATCC VR-538) and in cytoprotection assays with Rhinovirus strain 1B. They were grown in EMEM supplemented with 10% FBS, 0.1 mM non-essential amino acids, 1.0 mM sodium pyruvate, 2.0 mM L-Glutamine, 100 units/ml Penicillin and 100 μg/ml Streptomycin.
HCMV Plaque Reduction Assay: MRC-5 cells were seeded at 75,000 cells/well in 24 well plates. The plates were incubated overnight at 37° C. and 5% CO2. The following day, media was aspirated and approximately 100 plaque forming units (pfu) of HCMV AD169 was added to 21 wells of each plate in a volume of 200 μL of assay medium (MRC-5 growth medium containing 2% FBS rather than 10% FBS). The remaining three wells of each plate served as cellular control wells and received 200 μL of assay medium without virus. […] After a six day incubation period, cell viability was determined using CellTiter 96 Aqueous One Solution (Promega Corporation). […] Adhesive plate sealers were used in place of the lids, the sealed plates were inverted several times to mix the soluble formazan product and the plate was read spectrophotometrically at 490 and 650 nm with a Molecular Devices Vmax plate reader. […] A therapeutic (selectivity) index (TI) for each active compound was determined by dividing the TC50 by the IC50.

[8] = Compound cytotoxicity in HIV cytoprotection assay (XTT); assay type: cell-based; settings: human, MT-4 cells; MT-4, HIV-1 assay
Description: MT-4 cells ((Catalog #120) Human T-cell Leukemia) were obtained from the NIH AIDS Reference Reagent Program and were used in cytoprotection assays with HIV-1 Strain IIIB (Southern Research). They were grown in RPMI-1640 medium supplemented with 10% FBS.
Cytoprotection Assay for HIV:_MT-4 cells were sub-cultured one day prior to testing. Cells were plated in 96 well cell culture plates at a seeding density of 6×10^5 cells/ml (3×10^4 cells/well). […] Virus and cells were mixed in the presence of serial dilutions of test compound and incubated for 5 days at 37° C., 5% CO2. Each assay plate contained cell control wells (cells only), virus control wells (cells plus virus), compound toxicity control wells (cells plus compound only) as well as experimental wells (compound plus cells plus virus). Cytoprotection and compound cytotoxicity were assessed by XTT assay (Cat#11-465-015-001, Roche Diagnostics). The plates were read spectrophotometrically at 450/650 nm with a Molecular Devices SpectraMax M2 plate reader. The percent reduction in viral CPE was determined and reported as IC50, CC50 and a calculated TI. Samples were evaluated for antiviral efficacy and cytotoxicity with triplicate measurements using 9 concentrations at 2-fold dilutions. Each assay included Raltegravir (MK0518) as an antiviral positive control compound.

[9] = Protide stability in normal plasma, mouse; assay type: in vitro ADME; settings: 37° C.
Description: Selected nucleoside 5′-phosphoramidates were examined for stability in human, cynomolgous monkey, rat and mouse plasma at 37° C. at both 30 min and 90 min time points.
Protide Stability in Normal Plasma: Plasma samples were prepared for analysis as follows. 50 μl of each test sample were distributed a 96-well V-bottom plate. 200 μl of acetonitrile containing 10 ng/ml of an internal standard was added to each plasma sample. The precipitated samples were centrifuged at 2500 rpm, 4° C. for 20 minutes in a Sorvall RT6000S centrifuge (Thermo Scientific, Waltham Mass.) and 100 μl of supernatant from each sample was transferred into a 96 deep well plate followed by the addition of 100 μl H2O to each sample. Samples were covered, mixed well by vortexing and maintained at 2-8° C. before and during analysis. 15 μl of each test sample was analyzed for protide concentrations by liquid chromatography coupled to tandem mass spectrometry (LC-MS/MS). Liquid chromatography was performed with an Agilent 1100 Series HPLC system equipped with a Synergi 4 μm Polar-RP, 30×2.0 mm column (Phenomenex, Torrance, Calif.). The HPLC system was coupled to an API 4000 triple quadrupole mass spectrometer (Applied Biosystems, Framingham, Mass.). Mass spectrometry was performed in positive ion mode and data was analyzed using Analyst® v1.4.2 software (Applied Biosystems, Framingham, Mass.). Data was presented as the percentage of compound recovered as compared to the 0 time point control.

[10] = test system: HeLa cells; settings: human
[11] = test system: MDCK cells; settings: Influenza B assay
[12] = in vitro; settings: dog
[13] = Compound cytotoxicity in cytoprotection assay (MTS), MDBK; settings: cow, MDBK cells

For COc1nc(N)nc2c1ncn2C1O[C@H](COP(=O)(N[C@@H](C)C(=O)OCC(C)(C)C)Oc2cccc3ccccc23)[C@@H](O)[C@@]1(C)O (some centres unmarked) [Example 20], which EC50 [1] is on record?
Its EC50 is 1810 nM.

And the EC50 [2]?
The EC50 was 1690 nM.

What about the EC50 [3] of the same compound?
The EC50 was > 10 µM.

And the EC50 [4]?
Its EC50 is > 10 µM.

What about the EC50 [5] of the same compound?
Its EC50 is 4.52 µM.

What about the EC50 [6] of the same compound?
The EC50 was > 10 µM.

And the CC50 at 6 days [7]?
The CC50 at 6 days was 1570 nM.

What about the CC50 at 5 days [8] of the same compound?
The CC50 at 5 days was 11 µM.

What about the “% Compound Remaining Compared to %100 Acetonitrile Control” value ([9]; 30 min) of the same compound?
The value was 0%.

What about the “% Compound Remaining Compared to %100 Acetonitrile Control” value ([9]; 1.5 h) of the same compound?
Its value is 0%.

And the CC50 [10]?
Its CC50 is > 10 µM.

And the CC50 [11]?
Its CC50 is > 10 µM.

What about the CC50 [12] of the same compound?
The CC50 was > 10 µM.

And the CC50 at 7 days [13]?
The CC50 at 7 days was > 10 µM.

From patent publication US8759318B2, “Phosphoramidate derivatives of guanosine nucleoside compounds for treatment of viral infections” (Inhibitex, Inc., priority 2009, dated 2014)
